Assay results taken from patent publication US8946439B2, “Amide compounds, compositions and uses thereof” (Evotec AG, priority 2008, dated 2015).
Read-outs that look alike come from different tables or passages of the source.

Tests used:
[1] = biological target: T1, hP2X3 (Homo sapiens, UniProt P56373); experiment: Calcium uptake assay (P2X antagonist assay), P2X3 homomer; type: cell-based; details: hP2X3
T1 construct: expressed in transfected cells; host or cells: e.g. HEK293 or 1321N1
T1 sequence (P56373 1-397): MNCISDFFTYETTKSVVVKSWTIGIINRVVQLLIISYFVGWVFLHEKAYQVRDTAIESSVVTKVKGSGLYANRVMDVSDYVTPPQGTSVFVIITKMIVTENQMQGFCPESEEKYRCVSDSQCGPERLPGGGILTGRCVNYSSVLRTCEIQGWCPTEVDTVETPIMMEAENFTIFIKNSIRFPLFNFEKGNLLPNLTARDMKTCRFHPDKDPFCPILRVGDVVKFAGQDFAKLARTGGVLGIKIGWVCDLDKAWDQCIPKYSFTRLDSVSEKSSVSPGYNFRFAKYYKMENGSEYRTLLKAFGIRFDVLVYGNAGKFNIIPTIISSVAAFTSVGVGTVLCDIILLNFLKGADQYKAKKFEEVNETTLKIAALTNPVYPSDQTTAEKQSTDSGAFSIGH
Method in brief: (§1)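 Stably or transiently transfected HEK293 or 1321N1 cells; the heteromer is made by adding P2X3 to a P2X2-stable line, with heteromer function isolated pharmacologically. The peak-minus-baseline FLIPR calcium signal gives % inhibition and a 4-parameter-logistic IC50.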

[2] = biological target: T2, hP2X2/3H (Homo sapiens, UniProt P56373+Q9UBL9); experiment: Calcium uptake assay (P2X antagonist assay), P2X2/3 heteromer; type: cell-based; details: hP2X2/3H
T2 construct: expressed in transfected cells; host or cells: e.g. HEK293 or 1321N1
T2 sequence (Q9UBL9 1-471): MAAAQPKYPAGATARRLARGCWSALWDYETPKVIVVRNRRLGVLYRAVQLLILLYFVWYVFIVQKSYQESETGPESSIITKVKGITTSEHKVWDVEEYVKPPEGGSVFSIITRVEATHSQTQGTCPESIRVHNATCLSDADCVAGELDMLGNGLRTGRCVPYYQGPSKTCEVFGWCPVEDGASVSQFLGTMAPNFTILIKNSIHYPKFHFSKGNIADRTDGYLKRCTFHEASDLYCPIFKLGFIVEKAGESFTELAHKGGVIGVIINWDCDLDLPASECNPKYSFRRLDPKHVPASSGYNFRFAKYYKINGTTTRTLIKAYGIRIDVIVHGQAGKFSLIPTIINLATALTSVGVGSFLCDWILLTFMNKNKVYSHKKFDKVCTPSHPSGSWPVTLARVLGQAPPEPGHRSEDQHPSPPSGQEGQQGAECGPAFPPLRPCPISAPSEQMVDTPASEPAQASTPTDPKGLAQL
T2 sequence (P56373 1-397): T1 sequence (P56373 1-397)
Method in brief: as §1

[3] = calcium uptake assay, read-out: IC50 hP2X3 (nM), Ca Influx
[4] = calcium uptake assay, read-out: IC50 hP2X2/3H (nM), Ca Influx
[5] = Ca influx (calcium uptake assay), read-out: IC50 hP2X3
[6] = Ca influx (calcium uptake assay), read-out: IC50 hP2X2/3H

| IC50 [1, 3] [nM] | IC50 [2, 4] [nM] | IC50 [1, 5] [nM] | IC50 [2, 6] [nM] | SMILES |
| --- | --- | --- | --- | --- |
| – | – | < 100 | < 100 | Cc1ccc(-c2cc(C(=O)N[C@H](C)c3ccc(C)nc3)cc(C(C)O)c2)nc1 (stereo partly drawn) [Compound 331] |
| – | – | < 100 | < 100 | Cc1ccc(-c2cc(OCC3CCCO3)cc(C(=O)N[C@H](C)c3ccc(C)nc3)c2)cc1 (stereo partly drawn) [Compound 310, 4′-Methyl-N—((R)-1-(6-methylpyridin-3-yl)ethyl)-5-((tetrahydrofuran-2-yl)methoxy)biphenyl-3-carboxamide] |
| – | – | 100 to 500 | < 100 | Cc1ccc(-c2cc(Oc3ccccn3)cc(C(=O)N[C@H](C)c3ccc(C)nc3)c2)cc1 [Compound 242, (R)-4′-Methyl-N-(1-(6-methylpyridin-3-yl)ethyl)-5-(pyridin-2-yloxy)biphenyl-3-carboxamide] |
| – | – | < 100 | 501 to 1000 | Cc1ccc(-c2cc(C(=O)NCc3ccc(C)nc3)cc(C(O)CN(C)CCO)c2)cc1 (stereo not drawn) [Compound 368] |
| – | – | < 100 | < 100 | Cc1ccc(-c2cc(C(=O)N[C@H](C)c3ccc(C)nc3)cc(C(O)c3ccccn3)c2)nc1 (stereo partly drawn) [Compound 287] |
| – | – | < 100 | < 100 | Cc1ccc(-c2cc(C(=O)NCc3ccc(C)nc3)cc(C(O)CN3CC(C)OC(C)C3)c2)cc1 (stereo not drawn) [Compound 391] |
| – | – | < 100 | < 100 | COCCOc1cc(C(=O)NCc2ccc(C)nc2)cc(-c2ccc(C)cc2)c1 [Compound 248, 5-(2-Methoxyethoxy)-4′-methyl-N-((6-methylpyridin-3-yl)methyl)biphenyl-3-carboxamide] |
| – | – | < 100 | < 100 | Cc1ccc(-c2cc(C(=O)N[C@H](C)c3ccc(C)nc3)cc(C(C)O)c2)c(C#N)c1 (stereo partly drawn) [Compound 311] |
| – | – | 100 to 500 | 100 to 500 | Cc1ccc(-c2cc(Oc3nc4ccccc4s3)cc(C(=O)N[C@H](C)c3ccc(C)nc3)c2)c(C#N)c1 [Compound 392] |

Further lines, the compound ahead of its results:

| SMILES | IC50 [1, 3] [nM] | IC50 [2, 4] [nM] | IC50 [1, 5] [nM] | IC50 [2, 6] [nM] |
| --- | --- | --- | --- | --- |
| Cc1ccc(-c2cc(C(=O)NCc3cnc(C)nc3)cc(C(=O)N3CCCC3C(F)(F)F)c2)cc1 (stereo not drawn) [Compound 33] | < 100 | < 100 | – | – |
| Cc1ccc(-c2cc(C(=O)N[C@H](C)c3cnc(C)nc3)cc(S(=O)(=O)N3CCCC3)c2)c(C#N)c1 [Compound 147] | < 100 | > 1000 | – | – |
| Cc1ccc(-c2cc(S(=O)(=O)N3CCCC3)cc(C(=O)NCc3ccc(C)nc3)c2C)cc1 [Compound 68] | 100 to 500 | > 1000 | – | – |
| Cc1ncc(CNC(=O)c2cc(C(=O)N3CCCC3)cc(-c3ccc(Br)cc3)c2)cn1 [Compound 215] | – | – | < 100 | 100 to 500 |
| Cc1ccc(-c2cc(C(=O)N[C@H](C)c3ccc(C(F)(F)F)nc3)cc(C(=O)N3CC[C@@H](O)C3)c2)cc1 [Compound 158] | < 100 | < 100 | – | – |
| Cc1ccc(-c2cc(C(=O)NCc3cnc(C(C)C)nc3)cc(C(=O)N3CCCC3)c2)cc1 [Compound 80] | 501 to 1000 | > 1000 | – | – |
| Cc1ccc(-c2cc(C(=O)N[C@H](C)c3cnc(C)nc3)cc(C(=O)N(C)CC(C)C)c2)cc1 [Compound 14, (R)—N3-Isobutyl-N3,4′-dimethyl-N5-(1-(2-methylpyrimidin-5-yl)ethyl)biphenyl-3,5-dicarboxamide] | < 100 | < 100 | – | – |
| Cc1ccc(-c2cc(C(=O)NCc3ccc(C(F)(F)F)c(F)c3)cc(C(=O)N3CCCC3)c2)nc1 [Compound 145] | 100 to 500 | 100 to 500 | – | – |
| Cc1ccc(-c2cc(C#N)cc(C(=O)NCc3cnc(C)nc3)c2)nc1 [Compound 155] | > 1000 | > 1000 | – | – |
| Cc1ccc(-c2cc(C(=O)NCc3cnc(C)cn3)cc(C(=O)N3CCCC3)c2)cc1 [Compound 51] | < 100 | < 100 | – | – |
| Cc1ccc(-c2cc(C(=O)NCc3ccc(Cl)nc3)cc(C(=O)N3CCCC3)c2)cc1 [Compound 91] | < 100 | < 100 | – | – |
| Cc1ccc(-c2cc(C(=O)NC(c3ccc(C)nc3)C(F)(F)F)cc(C(=O)N3CCCC3)c2)cc1 (stereo not drawn) [Compound 214] | – | – | > 1000 | > 1000 |
